Columns and labels:
HT1376 tumor xenograft = assay: TE and EV therapy response study, HT1376 xenograft; type: in vivo, NSG mice; details: for mice showing a drop in [^68Ga]AJ647 uptake: day 6
Procedure: Mice with tumor volumes of ~100 to 150 mm^3 were injected with ~200 μCi [7.4 megabecquerels (MBq)] of [^68Ga]AJ647 in […] of 5% ethanol in saline intravenously and anesthetized under 2.5% isoflurane. PET-computed tomography (CT) images were acquired at 60 min after radiotracer injection at 5 min per bed in an ARGUS small-animal PET/CT scanner (Sedecal, Madrid, Spain) as described previously (n = 3, unless otherwise noted). PET-MR images were acquired on a simultaneous 7T Bruker PET-MR scanner. Dynamic imaging was conducted to evaluate the PK of [^68Ga]AJ647. [^68Ga]AJ647 was injected (with the help of a catheter) after mice were anesthetized under 2.5% isoflurane on the equipment bed. All PET data were reconstructed using the two-dimensional (2D) ordered subset expectation maximization algorithm and corrected for radioactive decay and dead times. The SUV values were calculated by finding %IA on the basis of a calibration factor obtained from a known radioactive quantity and then normalizing by mice weight. Amide software was used to derive SUV values by drawing the region of interest to closely fit tumors. In particular, MR images were used to identify tumor boundaries manually; these boundaries were transferred to co-registered PET images to derive SUVs. This process was repeated for each mouse individually in a blinded fashion. For the change in accessible Nectin-4 following EV treatment, ΔSUV was calculated by subtracting baseline (pre-treatment) uptake from posttherapy uptake of [^68Ga]AJ647. TE was quantified by normalizing this change by initial SUV in the same subject controls. Image fusion, visualization, and 3D rendering were accomplished using Amira 2020.3.1 (FEI, Hillsboro, OR).
Male NSG (n = 35) mice were inoculated with 4 million HT1376 cells at day 0. On day 23 (average tumor volume, 170 ± 22 mm^3), mice were randomized to receive either saline or a single dose of EV (6 or 15 mg/kg) intravenously (n = 10 for each group). Mice (n = 10) from each dose group were imaged on days 22 (pre-EV) and 29 (6 days post-EV). Saline mice (n = 5) were imaged on day 25 to serve as temporal and treatment control. Mouse body weight and tumor measurements were recorded until saline group tumors reached 1500 mm^3 in average size. Responders and nonresponders were identified using mRECIST for mice published elsewhere ([34]). Briefly, the percentage change in volume relative to the baseline: % tumor volume change (ΔVolt) = 100% × [(Vt − Vinitial)/Vinitial]. BestResponse was the lowest ΔVolt for t ≥ 10 days. For each time t, the average ΔVolt from t = 0 to t was calculated, with the BestAvgResponse defined as the lowest average ΔVolt for t ≥ 10 days. mRECIST, adapted from RECIST21, assigned response labels when both the BestResponse and BestAvgResponse conditions are met at the same time. A modified complete response is defined when BestResponse is less than −95% and BestAvgResponse is less than −40%. A modified partial response is assigned when BestResponse is less than −50% and BestAvgResponse is less than −20%. Modified stable disease is defined when BestResponse is less than 35% and BestAvgResponse is less than 30%. Modified progressive disease is assigned when none of these criteria are satisfied.
We defined modified progressive disease as nonresponders (0 response) and stable disease or better as responders (1 response). […]

human Nectin-4 = target: T1, human Nectin-4 (Homo sapiens, UniProt Q96NY8); assay: SPR affinity for recombinant human Nectin-4; type: binding; details: human Nectin-4
T1 construct: purchased R&D Systems 2659-N4-050
T1 sequence (Q96NY8 32-349 limits assumed): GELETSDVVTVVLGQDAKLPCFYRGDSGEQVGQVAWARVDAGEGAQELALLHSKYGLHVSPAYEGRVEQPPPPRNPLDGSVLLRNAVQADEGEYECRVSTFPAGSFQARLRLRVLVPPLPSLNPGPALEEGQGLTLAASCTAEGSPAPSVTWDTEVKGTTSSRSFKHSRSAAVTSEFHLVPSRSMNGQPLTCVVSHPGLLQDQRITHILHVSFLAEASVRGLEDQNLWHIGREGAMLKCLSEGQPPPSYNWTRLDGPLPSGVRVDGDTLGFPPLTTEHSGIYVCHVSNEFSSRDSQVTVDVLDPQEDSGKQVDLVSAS
Procedure: The affinity of AJ647 for human and mouse Nectin-4 recombinant proteins was evaluated by SPR. The experiments were conducted using a Biacore T200 instrument with a CM5 chip at 25°C. The ligands used were His-tagged human Nectin-4 (R&D Systems, catalog no. 2659-N4-050, 44 kDa, 0.2 mg/ml stock concentration) and mouse Nectin-4 proteins (R&D Systems, catalog no. 3116-N4-050, 45 kDa, 0.2 mg/ml stock concentration), which were immobilized onto the CM5 chip. AJ647 (3057.5 Da, 10 mM stock concentration) was used as the analyte, which flowed over the ligand-immobilized surface. FC2 and FC4 was used as the experimental flow cell, while FC1 and FC3 served as the reference. An anti-His antibody (1 mg/ml stock concentration) was immobilized on all flow cells using standard amine coupling chemistry. […] Human Nectin-4 was captured onto FC2 at a level of ~600 RU, with a 1:20 dilution and 10 μg/ml diluted concentration in PBS-P. Mouse Nectin-4 was captured onto FC4 at a level of 600 RU, with a 1:20 dilution and 10 μg/ml diluted concentration in PBS-P. The theoretical maximum response (Rmax ) values were calculated on the basis of the captured response values (table S1), assuming a 1:1 interaction mechanism. […] All association and dissociation kinetics were evaluated by 1:1 kinetics model fitting.

Compound	mice showing a drop in [^68Ga]AJ647 uptake (HT1376 tumor xenograft; EV 6 mg/kg)	mice showing a drop in [^68Ga]AJ647 uptake (HT1376 tumor xenograft; EV 15 mg/kg)	final tumor volume (HT1376 tumor xenograft; EV-treated mice with higher TE, in mm³ (unit assumed))	final tumor volume (HT1376 tumor xenograft; EV-treated mice with less than 30% TE)	tumor growth (HT1376 tumor xenograft; single dose EV 6 or 15 mg/kg, n = 10 per group, more pronounced at 15 mg/kg)	koff (human Nectin-4) [s⁻¹]
enfortumab vedotin [EV]	5 of 10	9 of 10	324.9 ± 194.6	759.4 ± 455	Tumor growth inhibition was observed in both groups	
CSCC[C@@H]1NC(=O)[C@@H]2CSCCC(=O)N3CN(CN(C3)C(=O)CCSC[C@H](NC(=O)CCOCCOCCOCCOCCOCCOCCOCCOCCOCCOCCOCCOCCNC(=O)CN3CCN(CC(=O)O)CCN(CC(=O)O)CC3)C(=O)N3CCC[C@H]3C(=O)N[C@@H](Cc3cccc4ccccc34)C(=O)N[C@@H](CC(=O)O)C(=O)N2)C(=O)CCSC[C@@H](C(N)=O)NC(=O)[C@H](Cc2c[nH]c3ccccc23)NC(=O)[C@@H]2C[C@@H](O)CN2C(=O)[C@@H]2CCCN2C(=O)[C@H]([C@@H](C)O)NC(=O)[C@H](CO)NC(=O)[C@H](Cc2c[nH]c3ccccc23)NC(=O)[C@@H](CC(=O)O)NC(=O)[C@H](CCCCNC(=N)N)NC1=O [[^68Ga]AJ647, metal not drawn]						0.0106 ± 0.00159
